These results are taken from patent publication US7582676B2, “2-phenylpyran-4-one derivatives as selective COX-2 inhibitors” (Laboratorios Almirall, S.A., priority 2003, dated 2009).

SMILES strings stand for the structures.

The target in one assay is T1, COX-2 (Homo sapiens, UniProt P35354).
T1 construct: in the presence of LPS (10 μg/ml) for 24 h at 37° C. in order to induce the COX-2 expression; endogenous in cells; host or cells: human whole blood of healthy volunteers, LPS-stimulated for 24 h; PGE2 read-out
T1 sequence (P35354 18-604): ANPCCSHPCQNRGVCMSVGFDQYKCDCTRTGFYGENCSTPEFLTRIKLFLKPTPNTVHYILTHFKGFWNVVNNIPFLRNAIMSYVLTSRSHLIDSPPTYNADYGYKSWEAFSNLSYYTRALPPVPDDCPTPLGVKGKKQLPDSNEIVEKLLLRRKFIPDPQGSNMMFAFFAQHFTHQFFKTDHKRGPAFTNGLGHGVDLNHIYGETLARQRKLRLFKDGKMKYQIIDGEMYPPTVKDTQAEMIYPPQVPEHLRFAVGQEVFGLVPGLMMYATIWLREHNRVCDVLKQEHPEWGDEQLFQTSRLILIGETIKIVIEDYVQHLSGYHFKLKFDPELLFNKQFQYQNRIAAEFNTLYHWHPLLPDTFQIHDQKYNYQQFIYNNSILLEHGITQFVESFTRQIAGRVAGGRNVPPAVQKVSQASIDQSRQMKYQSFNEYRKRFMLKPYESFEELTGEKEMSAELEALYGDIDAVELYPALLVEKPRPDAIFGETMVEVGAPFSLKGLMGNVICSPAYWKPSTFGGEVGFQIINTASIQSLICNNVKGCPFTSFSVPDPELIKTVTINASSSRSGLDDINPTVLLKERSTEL
Put plainly: COX-2 activity in human whole blood (PGE2, LPS induced). The class given is cell-based. Particulars: for IC50: LPS 10 μg/ml, 24 h at 37° C., PGE2 by EIA; for Ratio COX-1/COX-2: ratio of COX-1/COX-2 IC50 values. Here is the method: (§1) COX-1 and COX-2 Activities in Human Whole Blood
For the COX-2 activity determination, 500 μl aliquots of blood were incubated in the presence of LPS (10 μg/ml) for 24 h at 37° C. in order to induce the COX-2 expression (Patriagnani et al., J. Pharm. Exper. Ther. 271; 1705-1712 (1994)). Plasma was separated by centrifugation (10 min at 13000 rpm) and kept at −30° C. until PGE2 levels were measured using an enzyme immunoassay kit (EIA). […] IC50 values were obtained by non-linear regression using InPlot, GraphPad software on an IBM computer.

The target of the next assay is T2, COX-1 (Homo sapiens, UniProt P23219).
T2 construct: Fresh blood from healthy volunteers; endogenous in cells; host or cells: human whole blood of healthy volunteers, stimulated with calcium ionophore A23187; TXB2 read-out
T2 sequence (P23219 24-599): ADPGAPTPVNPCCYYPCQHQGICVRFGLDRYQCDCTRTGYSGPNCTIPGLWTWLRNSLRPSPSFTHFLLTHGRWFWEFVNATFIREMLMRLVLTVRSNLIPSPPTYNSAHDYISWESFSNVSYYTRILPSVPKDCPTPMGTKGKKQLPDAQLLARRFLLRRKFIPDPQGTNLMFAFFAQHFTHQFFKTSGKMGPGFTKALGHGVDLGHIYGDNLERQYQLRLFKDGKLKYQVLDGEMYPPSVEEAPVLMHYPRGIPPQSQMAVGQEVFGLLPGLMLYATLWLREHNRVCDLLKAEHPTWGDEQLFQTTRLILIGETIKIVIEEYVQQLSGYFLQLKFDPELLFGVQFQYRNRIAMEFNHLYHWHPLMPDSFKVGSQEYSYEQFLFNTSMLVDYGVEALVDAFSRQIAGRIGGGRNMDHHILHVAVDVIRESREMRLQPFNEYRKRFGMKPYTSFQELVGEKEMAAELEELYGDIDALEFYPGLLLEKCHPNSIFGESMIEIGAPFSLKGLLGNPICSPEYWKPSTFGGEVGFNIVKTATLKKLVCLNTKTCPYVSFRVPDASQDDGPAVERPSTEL
The assay is described as follows: COX-1 activity in human whole blood (TXB2, calcium ionophore A23187). The class given is cell-based. Particulars: 24 h at 37° C., A23187 25 μM, TXB2 by EIA. Here is the method: as §1
Fresh blood from healthy volunteers who had not taken any non-steroidal anti-inflammatory drugs for at least 7 days prior to blood extraction was collected in heparinized tubes (20 units of heparin per ml). For the COX-1 activity determination, 500 μl aliquots of blood were incubated with either 5 μl vehicle (dimethylsulphoxide) or 5 μl of a test compound for 24 h at 37° C. Calcium ionophore A23187 (25 μM) was added 20 min before stopping the incubation. Plasma was separated by centrifugation (10 min at 13000 rpm) and kept at −30° C. until TXB2 levels were measured using an enzyme immunoassay kit (EIA).
The effect of the compounds was evaluated by incubating each compound at five to six different concentrations with triplicate determinations. IC50 values were obtained by non-linear regression using InPlot, GraphPad software on an IBM computer.

With `Cc1cc(=O)c(Oc2ccc(F)cc2F)c(-c2ccc([S+](C)[O-])cc2)o1` (racemic) [Example 1, 3-(2,4-Difluorophenoxy)-6-methyl-2-[4-(methylsulfinyl)phenyl]-4H-pyran4-one], on COX-2, inhibition was half-maximal at 0.96 µM (IC50) and the “Ratio COX-1/COX-2” value is on record as 104.
`Cc1cc(=O)c(Oc2ccc(Br)cc2F)c(-c2ccc([S+](C)[O-])cc2)o1` (racemic) [Example 7, 3-(4-Bromo-2-fluorophenoxy)-6-methyl-2-[4-(methylsulfinyl)phenyl]-4H-pyran-4-one]: the IC50 – broadly, the concentration needed to halve the response being measured – on COX-1 came to 77 µM; on COX-2 it was 0.57 µM. In addition, the “Ratio COX-1/COX-2” value on COX-2 was found to be 135.
For `Cc1cc(=O)c(Oc2ccc(F)cc2F)c(-c2ccc([S+](C)[O-])cc2)o1` (single isomer, unassigned; enantiomer 1a) [Example 2, 3-(2,4-Difluorophenoxy)-6-methyl-2-[4-(methylsulfinyl)phenyl]-4H-pyran-4-one-Enantiomer 1a], on COX-2, the IC50 worked out at 2.1 µM and the “Ratio COX-1/COX-2” value is on record as 48.
Turning to `Cc1cc(=O)c(Oc2ccc(F)cc2F)c(-c2ccc([S+](C)[O-])cc2)o1` (single isomer, unassigned; enantiomer 1b) [Example 3, 3-(2,4-Difluorophenoxy)-6-methyl-2-[4-(methylsulfinyl)phenyl]-4H-pyran4-one-Enantiomer 1b], the half-inhibitory concentration (IC50) is 86.6 µM on COX-1 and 0.27 µM against COX-2. Moreover, at COX-2, the “Ratio COX-1/COX-2” value was 321.
For the molecule `Cc1cc(=O)c(Oc2ccc(Cl)cc2F)c(-c2ccc([S+](C)[O-])cc2)o1` (single isomer, unassigned; enantiomer 4a) [Example 5, 3-4-Chloro-2-fluorophonoxy)-6-methyl-2-[4-(methylsuffinyl)phenyl]-4H-pyran-4-one-Enantiomer 4a], at COX-1, the IC50 came to 72.9 µM.
`Cc1cc(=O)c(Oc2ccc(Br)cc2F)c(-c2ccc([S+](C)[O-])cc2)o1` (single isomer, unassigned; enantiomer 7a) [Example 8, 3-4-Bromo-2-fluorophenoxy)-6-methyl-2-[4-methylsulfinyl)phenyl]-4H-pyran4-one-Enantiomer 7a]: the IC50 at COX-1 turned out to be 32.1 µM. Moreover, on COX-2, the IC50 was determined as 1.58 µM and the “Ratio COX-1/COX-2” value came out at 20.
On the same counts, the results for `Cc1cc(=O)c(Oc2ccc(Br)cc2F)c(-c2ccc([S+](C)[O-])cc2)o1` (single isomer, unassigned; enantiomer 7b) [Example 9, 3-4-Bromo-2-fluorophenoxy)-6-methyl-2-[4-(methylsulfinyl)phenyg]4H-pyran-4-one-Enantiomer 7b] are 73.1 µM, 0.17 µM and 430.
